Source: PubChem BioAssay (NCI)
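Cultured in 96-well plates, cells were exposed to test compound for 48 hours across five concentrations. TGI marks complete inhibition of growth.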

Legend:
Test in all cases: inhibition of tumour cell growth, NCI panel, 48 h
786-0 renal = system: 786-0 renal
A498 renal = system: A498 renal
CCRF-CEM leukemia = system: CCRF-CEM leukemia
DU-145 prostate = system: DU-145 prostate
EKVX NSCLC = system: EKVX NSCLC
MCF7 breast = system: MCF7 breast
MDA-MB-231 breast = system: MDA-MB-231 breast
MDA-MB-435 = system: MDA-MB-435
MDA-N = system: MDA-N
NCI/ADR-RES ovarian = system: NCI/ADR-RES ovarian
OVCAR-4 ovarian = system: OVCAR-4 ovarian
SF-268 CNS = system: SF-268 CNS
SK-MEL-28 melanoma = system: SK-MEL-28 melanoma
SW-620 colon = system: SW-620 colon

Row | SMILES | TGI (786-0 renal) [µM] | TGI (A498 renal) [µM] | TGI (CCRF-CEM leukemia) [µM] | TGI (DU-145 prostate) [µM] | TGI (EKVX NSCLC) [µM] | TGI (MCF7 breast) [µM] | TGI (MDA-MB-231 breast) [µM] | TGI (MDA-MB-435) [µM] | TGI (MDA-N) [µM] | TGI (NCI/ADR-RES ovarian) [µM] | TGI (OVCAR-4 ovarian) [µM] | TGI (SF-268 CNS) [µM] | TGI (SK-MEL-28 melanoma) [µM] | TGI (SW-620 colon) [µM]
1 | COC(=O)/C=C1/CCC(C)(C(=O)NS(=O)(=O)c2ccc(C)cc2)C1(C)C (stereo not drawn) | > 100 | > 100 | > 100 | > 100 | > 100 | > 100 | > 100 | > 100 | > 100 | > 100 | > 100 | > 100 | > 100 | > 100
2 | COc1cc(S(=O)(=O)Nc2ccc(-c3csc(N)n3)cc2)ccc1Cl | 30 | 59.2 | 53.5 | 32.4 | 30.2 | 29.9 | 31.4 | 46.9 | 38.5 | 83.3 | 27.9 | 76.6 | 48.5 | 58.5
3 | Cc1ccc(-c2cc(C(F)(F)F)nn2-c2ccc(S(N)(=O)=O)cc2)cc1 | > 89.2 | 43.4 | 40.7 | > 57.7 | 54.4 | > 58.4 | > 54.2 | > 56 | 30.9 | 43.1 | 46.4 | > 55.8 | > 56.2 | > 56.3
4 | O=c1ccn(C2OC(CO)C(O)C2[Se]c2ccccc2)c(=O)[nH]1 (stereo not drawn) | > 100 | > 100 | > 100 | > 100 | > 100 | > 100 | > 100 | > 100 | > 100 | > 100 | > 100 | > 100 | > 100 | > 100
5 | c1ccc([P+](Cc2ccccc2C[P+](c2ccccc2)(c2ccccc2)c2ccccc2)(c2ccccc2)c2ccccc2)cc1 | > 100 | > 100 | – | > 100 | – | > 100 | > 100 | > 100 | > 100 | > 100 | – | > 100 | > 100 | > 100
6 | CCOc1ccc(N/C(Cl)=C(Cl)\C(=C(\Nc2ccc(OCC)cc2)n2nnc3ccccc32)[N+](=O)[O-])cc1 | 14.2 | 39 | 33.9 | 46.8 | 31.3 | 24.6 | 15.6 | 23.7 | 13.2 | > 100 | 30.8 | 32.1 | 20.9 | 5.71
7 | Cc1nnc2sc(NN)nn12 | > 100 | > 100 | > 100 | > 100 | > 100 | > 100 | > 100 | > 100 | > 100 | > 100 | > 100 | > 100 | > 100 | > 100
8 | NC(=S)N/N=C1\NC(=O)/C(=C/c2ccc3c(c2)OCO3)S1 | > 100 | 30.3 | – | 88 | 56 | > 100 | 77.1 | 78.1 | 97.9 | 78.7 | 75.8 | 97.3 | 78.7 | 88.8
9 | CC(SC(=S)N1CCOCC1)C(=O)Nc1nnc(-c2ccccc2)o1 (stereo not drawn) | > 100 | > 100 | 18.3 | > 100 | > 100 | > 100 | > 100 | > 100 | > 100 | 96.4 | > 100 | – | > 100 | > 100
10 | COc1ccc(C(CC(=O)C(C)(C)CN2CCCCC2)SCCS(=O)(=O)O)cc1 (stereo not drawn) | 60.7 | 74.3 | 55.1 | > 100 | > 100 | > 100 | 75.1 | 52.3 | 96.2 | > 100 | > 100 | – | – | > 100
11 | COc1ccc(/C(O)=C/c2nc3cccnc3nc2/C=C(\O)c2ccc(OC)cc2)cc1 | 10.4 | > 100 | > 100 | > 100 | 82.1 | 50.1 | 31.2 | 76.4 | > 100 | 53 | 18.3 | 28.6 | 69 | –
12 | COc1cc(OC)c2nc(C)c3c(c2c1)NCC3 | 17.2 | 27.7 | 31.3 | 59 | – | 17.8 | 21.8 | 21.6 | 21.1 | 71.2 | 15.6 | 20 | 28.5 | 19.1
13 | CCOC(=O)[C@@]12C3C=CC(CC3)[C@]1(C(=O)c1ccccc1)C(=O)C(=O)N2c1ccccc1 (stereo partly drawn) | > 100 | > 100 | – | > 100 | – | > 100 | > 100 | > 100 | > 100 | > 100 | > 100 | > 100 | > 100 | > 100
14 | O=c1[nH]nc(Cc2ccccc2)n1/N=C\c1ccccc1 | > 100 | > 100 | > 100 | > 100 | > 100 | > 100 | > 100 | > 100 | > 100 | > 100 | > 100 | – | > 100 | > 100
15 | C[C@]12CC/C(=N\O)C=C1CC[C@@H]1[C@@H]2CC[C@]2(C)C(=N/O)/C(=C/c3ccc([N+](=O)[O-])cc3)C[C@@H]12 | 27.7 | 45.4 | 16 | 28.8 | – | > 100 | 29.6 | 19 | 85 | > 100 | 44.4 | > 100 | > 100 | > 100
16 | CC1Oc2c(c(=O)oc3ccccc23)[C@@]1(C)CC1C[C@H](C)C(=O)O1 (stereo partly drawn) | 33.4 | > 100 | 32.9 | > 100 | > 100 | > 100 | > 100 | 47.8 | 45.9 | > 100 | – | 42.8 | 38.7 | > 100
17 | C=C(C)[C@H]1C=C[C@@H](OC(=O)c2cccnc2)[C@@]23CO[C@@](C)([C@H](OC(=O)c4cccnc4)[C@@]4(OC(C)=O)C[C@H](C)[C@H](OCCC)[C@@H]4[C@H]2OC(C)=O)[C@H]13 | > 15 | > 15 | > 15 | > 15 | > 15 | > 15 | > 15 | > 15 | > 15 | > 15 | > 15 | > 15 | – | > 15
